Measurements taken from ChEMBL document CHEMBL4765443, “Covalent and noncovalent constraints yield a figure eight-like conformation of a peptide inhibiting the menin-MLL interaction” (Eur J Med Chem, 2020).
Positions of bridges follow the written chain, without caps; N, C: chain ends. Non-standard residues stand in square brackets, D forms with d. Residues, ends and D or L forms follow the SMILES beside them. Phe(3-F) = N[C@@H](Cc1cccc(F)c1)C(=O)O; AllylGly = C=CC[C@H](N)C(=O)O; Ac4c = NC1(C(=O)O)CCC1

Experiments:
[1] = biological target: T1, Menin/Histone-lysine N-methyltransferase MLL (Homo sapiens, UniProt O00255); assay: Inhibition of Menin-MLL protein-protein interaction (unknown origin) preincubated for 1 hr in presence of FLSN-MLL4-43 peptide followed by compound addition and measured after 1 hr by fluorescence polarization assay
[2] = biological target: T1, Menin/Histone-lysine N-methyltransferase MLL; assay: Inhibition of Menin-MLL protein-protein interaction (unknown origin) preincubated for 1 hr in presence of FLSN-MBM1 peptide followed by compound addition and measured after 1 hr by fluorescence polarization assay

T1 sequence (O00255 whole entry): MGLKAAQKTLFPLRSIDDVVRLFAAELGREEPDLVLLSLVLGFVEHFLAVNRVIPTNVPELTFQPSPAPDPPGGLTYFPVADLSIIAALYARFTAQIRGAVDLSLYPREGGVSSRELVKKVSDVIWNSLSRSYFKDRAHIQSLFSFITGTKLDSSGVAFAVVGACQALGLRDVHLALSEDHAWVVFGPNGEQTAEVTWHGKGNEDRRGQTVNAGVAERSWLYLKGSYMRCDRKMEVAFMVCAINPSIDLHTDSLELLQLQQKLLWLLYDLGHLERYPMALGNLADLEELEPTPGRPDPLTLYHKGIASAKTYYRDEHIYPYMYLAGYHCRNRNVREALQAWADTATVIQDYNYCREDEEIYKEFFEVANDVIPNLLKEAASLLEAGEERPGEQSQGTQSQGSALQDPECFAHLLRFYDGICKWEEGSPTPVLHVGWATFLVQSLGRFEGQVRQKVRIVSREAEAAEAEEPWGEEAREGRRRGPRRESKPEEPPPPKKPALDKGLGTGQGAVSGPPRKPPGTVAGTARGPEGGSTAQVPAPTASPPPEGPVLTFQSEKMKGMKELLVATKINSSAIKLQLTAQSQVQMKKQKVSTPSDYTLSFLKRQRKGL
T1 sequence (Q03164 1-2718 partner limits assumed): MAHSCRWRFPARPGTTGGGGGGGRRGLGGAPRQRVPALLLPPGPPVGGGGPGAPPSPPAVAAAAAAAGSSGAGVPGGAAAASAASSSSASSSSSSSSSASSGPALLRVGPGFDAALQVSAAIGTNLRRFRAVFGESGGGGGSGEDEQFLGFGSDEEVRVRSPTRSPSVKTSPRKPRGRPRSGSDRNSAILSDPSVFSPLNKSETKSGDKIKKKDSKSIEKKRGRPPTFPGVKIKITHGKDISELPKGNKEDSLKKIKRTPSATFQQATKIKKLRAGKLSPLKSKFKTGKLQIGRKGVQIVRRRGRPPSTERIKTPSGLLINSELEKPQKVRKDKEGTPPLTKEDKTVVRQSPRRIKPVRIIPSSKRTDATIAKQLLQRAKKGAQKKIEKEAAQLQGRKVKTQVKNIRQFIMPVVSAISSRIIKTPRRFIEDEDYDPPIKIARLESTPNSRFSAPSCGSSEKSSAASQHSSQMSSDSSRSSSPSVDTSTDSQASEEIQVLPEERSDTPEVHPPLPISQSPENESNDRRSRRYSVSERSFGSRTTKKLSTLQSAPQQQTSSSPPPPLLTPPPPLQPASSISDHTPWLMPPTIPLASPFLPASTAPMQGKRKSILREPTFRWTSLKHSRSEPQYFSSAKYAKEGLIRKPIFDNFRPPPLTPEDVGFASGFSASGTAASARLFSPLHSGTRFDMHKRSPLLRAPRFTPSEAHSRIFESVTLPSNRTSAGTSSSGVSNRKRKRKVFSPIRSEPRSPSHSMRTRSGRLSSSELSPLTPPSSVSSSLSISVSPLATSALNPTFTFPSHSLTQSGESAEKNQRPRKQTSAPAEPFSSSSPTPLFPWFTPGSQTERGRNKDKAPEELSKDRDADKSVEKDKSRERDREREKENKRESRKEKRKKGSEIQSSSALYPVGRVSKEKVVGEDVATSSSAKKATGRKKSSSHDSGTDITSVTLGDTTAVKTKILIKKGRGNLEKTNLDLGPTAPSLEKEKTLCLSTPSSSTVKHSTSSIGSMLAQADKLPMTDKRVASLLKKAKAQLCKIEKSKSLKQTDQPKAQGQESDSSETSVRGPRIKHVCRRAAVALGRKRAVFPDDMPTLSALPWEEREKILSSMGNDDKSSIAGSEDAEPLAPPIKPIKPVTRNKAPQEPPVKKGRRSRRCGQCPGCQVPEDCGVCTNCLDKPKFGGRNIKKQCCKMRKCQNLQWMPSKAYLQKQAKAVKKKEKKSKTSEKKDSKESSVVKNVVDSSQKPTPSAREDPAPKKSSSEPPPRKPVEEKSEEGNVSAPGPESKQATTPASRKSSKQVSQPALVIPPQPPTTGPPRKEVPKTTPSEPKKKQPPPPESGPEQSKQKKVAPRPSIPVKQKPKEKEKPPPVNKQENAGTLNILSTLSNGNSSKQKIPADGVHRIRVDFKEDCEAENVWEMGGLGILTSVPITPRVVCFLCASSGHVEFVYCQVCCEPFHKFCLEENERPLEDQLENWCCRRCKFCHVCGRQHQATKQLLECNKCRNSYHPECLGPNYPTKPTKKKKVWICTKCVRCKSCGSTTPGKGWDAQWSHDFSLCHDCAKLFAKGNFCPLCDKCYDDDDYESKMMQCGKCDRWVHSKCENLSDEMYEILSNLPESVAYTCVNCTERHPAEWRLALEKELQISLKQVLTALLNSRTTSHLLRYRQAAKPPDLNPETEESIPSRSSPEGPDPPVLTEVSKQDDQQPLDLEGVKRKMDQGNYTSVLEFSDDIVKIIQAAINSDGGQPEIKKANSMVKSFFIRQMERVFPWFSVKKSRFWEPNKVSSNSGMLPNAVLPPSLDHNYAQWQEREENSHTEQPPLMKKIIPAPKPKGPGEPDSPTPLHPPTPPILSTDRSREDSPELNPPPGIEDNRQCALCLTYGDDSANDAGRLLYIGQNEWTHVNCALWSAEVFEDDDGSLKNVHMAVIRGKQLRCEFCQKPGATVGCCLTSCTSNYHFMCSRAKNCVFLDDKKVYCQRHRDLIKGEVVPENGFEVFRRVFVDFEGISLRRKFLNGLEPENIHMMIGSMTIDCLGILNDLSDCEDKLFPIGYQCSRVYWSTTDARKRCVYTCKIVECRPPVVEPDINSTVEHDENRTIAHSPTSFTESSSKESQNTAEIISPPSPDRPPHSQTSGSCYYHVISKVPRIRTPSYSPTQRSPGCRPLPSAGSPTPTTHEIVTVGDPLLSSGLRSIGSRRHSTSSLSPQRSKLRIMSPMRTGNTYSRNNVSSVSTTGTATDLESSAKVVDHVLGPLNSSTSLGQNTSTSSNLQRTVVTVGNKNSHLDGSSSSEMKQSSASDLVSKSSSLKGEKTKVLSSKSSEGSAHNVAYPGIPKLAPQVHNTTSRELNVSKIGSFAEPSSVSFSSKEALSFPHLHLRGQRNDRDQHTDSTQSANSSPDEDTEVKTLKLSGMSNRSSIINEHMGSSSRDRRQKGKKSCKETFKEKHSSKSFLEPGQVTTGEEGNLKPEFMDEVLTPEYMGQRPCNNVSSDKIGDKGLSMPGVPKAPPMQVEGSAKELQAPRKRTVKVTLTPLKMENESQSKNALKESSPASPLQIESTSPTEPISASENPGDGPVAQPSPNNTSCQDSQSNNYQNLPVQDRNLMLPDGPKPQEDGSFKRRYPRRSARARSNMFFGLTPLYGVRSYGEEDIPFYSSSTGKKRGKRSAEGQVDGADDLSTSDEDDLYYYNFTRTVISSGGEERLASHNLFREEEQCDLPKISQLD
T1 sequence (Q03164 2719-3969 partner limits assumed): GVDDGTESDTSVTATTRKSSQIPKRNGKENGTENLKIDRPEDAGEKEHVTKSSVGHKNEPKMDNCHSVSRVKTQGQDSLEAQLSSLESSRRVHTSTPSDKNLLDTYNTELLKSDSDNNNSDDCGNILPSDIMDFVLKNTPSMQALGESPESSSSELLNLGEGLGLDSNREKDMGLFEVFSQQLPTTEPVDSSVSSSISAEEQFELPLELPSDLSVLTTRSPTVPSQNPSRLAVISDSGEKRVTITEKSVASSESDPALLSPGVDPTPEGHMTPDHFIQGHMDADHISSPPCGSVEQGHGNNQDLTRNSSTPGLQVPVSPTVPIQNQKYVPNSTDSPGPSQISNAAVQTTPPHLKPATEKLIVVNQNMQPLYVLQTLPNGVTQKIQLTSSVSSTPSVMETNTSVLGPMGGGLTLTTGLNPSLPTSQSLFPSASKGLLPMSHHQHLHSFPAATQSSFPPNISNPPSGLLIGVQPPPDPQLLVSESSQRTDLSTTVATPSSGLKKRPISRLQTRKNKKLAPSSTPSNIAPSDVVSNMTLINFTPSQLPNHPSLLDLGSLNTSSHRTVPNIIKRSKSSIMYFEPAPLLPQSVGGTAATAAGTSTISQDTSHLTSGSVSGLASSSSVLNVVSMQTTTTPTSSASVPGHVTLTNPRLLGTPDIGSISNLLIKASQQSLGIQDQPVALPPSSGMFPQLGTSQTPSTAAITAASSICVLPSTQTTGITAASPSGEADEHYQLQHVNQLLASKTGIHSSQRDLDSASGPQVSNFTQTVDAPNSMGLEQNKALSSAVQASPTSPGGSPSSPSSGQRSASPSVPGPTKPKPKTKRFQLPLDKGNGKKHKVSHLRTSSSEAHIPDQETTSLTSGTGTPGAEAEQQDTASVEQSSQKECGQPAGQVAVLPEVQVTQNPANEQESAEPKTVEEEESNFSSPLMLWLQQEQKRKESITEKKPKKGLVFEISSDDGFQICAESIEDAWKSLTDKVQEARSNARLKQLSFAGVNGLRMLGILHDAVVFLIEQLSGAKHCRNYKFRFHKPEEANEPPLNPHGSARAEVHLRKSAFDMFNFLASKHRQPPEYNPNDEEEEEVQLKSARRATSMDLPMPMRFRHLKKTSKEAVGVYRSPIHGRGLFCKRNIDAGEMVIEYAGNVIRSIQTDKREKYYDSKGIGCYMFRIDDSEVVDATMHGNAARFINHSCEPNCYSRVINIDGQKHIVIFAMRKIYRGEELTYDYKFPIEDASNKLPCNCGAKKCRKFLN

Compound CC(=O)N[C@@H](CO)C(=O)N[C@@H](C)C(=O)N[C@@H](CCCNC(=N)N)C(=O)N[C@@H](Cc1c[nH]c2ccccc12)C(=O)N[C@H]1C/C=C\C[C@@H](C(=O)N2CCC[C@H]2C(=O)N[C@@H](CCCNC(=N)N)C(N)=O)NC(=O)C2(CCC2)NC(=O)[C@@H]2CCCN2C(=O)[C@H](Cc2cccc(F)c2)NC1=O (Ac-SARW[AllylGly][Phe(3-F)]P[Ac4c][AllylGly]PR-NH2; staple (Z) 5-9) has an IC50 [1] of 657 nM and an IC50 [2] of 64 nM.
